System: senescence-associated acidic β-galactosidase (SA-β-gal) inducing TIG3 cells
Assay: FACS analysis of SA-β-gal in doxorubicin senescence-induced TIG3 cells (anti-aging action)
Format: cell-based, human
Details: 50 μM added after doxorubicin (150 nM), 48 hours
Method: In Example 5, an anti-aging action in a senescence-associated acidic β-galactosidase (SA-β-gal) inducing TIG3 cells (human embryonic fibroblast) in which TIBC-CANDDY_MLN had been added was evaluated by FACS analysis.
TIG3 cells as normal cells were seeded in a 24-well plate at a cell density of 8×10^4 cells/well, and then cultured under conditions of 37° C. and 5 vol % CO2 for 16 hours.
After 16 hours from cell seeding, doxorubicin was added to each well at 150 nM/well to induce cellular senescence. As a medium, a serum-free medium (37° C.) in which 1 mass % L-glutamine solution (Sigma-Aldrich) was added to D-MEM (high D-glucose, phenol red, sodium pyruvate (Wako Pure Chemical Industries, Ltd.)) was used. It is noted that the L-glutamine solution was added immediately before use. After the addition of doxorubicin, culture was performed under conditions of 37° C. and 5 vol % CO2 for 24 hours.
After 24 hours from induction of senescence, TIBC-CANDDY_MLN was added to TIG3 cells as follows. As a medium, a serum-free medium (37° C.) in which 1 mass % L-glutamine solution (Sigma-Aldrich) was added to D-MEM (high D-glucose, phenol red, sodium pyruvate (Wako Pure Chemical Industries, Ltd.)) was used. It is noted that the L-glutamine solution was added immediately before use. A DMSO solution containing TIBC-CANDDY_MLN was mixed with the medium so that the concentration of DMSO was 1 vol %, and added to each well at 500 μL/well, and cultured under conditions of 37° C. and 5 vol % CO2 for 48 hours. As a control, DMSO was used.
For quantification of SA-β-gal as a senescence marker, a commercially available kit (Cellular Senescence Detection Kit-SPiDER-βGal (DOJINDO LABORATORIES)) was used. […]
A BD FACSCanto™ II (BD Biosciences) was used for flow cytometry to detect SA-β-gal labeled with FITC. […] A histogram of the FITC strength was created by an analysis software FlowJo™ (TOMY Digital Biology Co., Ltd.), and the senescence suppressing action by TIBC-CANDDY_MLN was evaluated from a shift in the histogram.

Q: Which results are given for CC(C)C[C@H](NC(=O)CNC(=O)c1cc(Cl)ccc1Cl)C(=O)NCCCCCCC(=O)Nc1ccc(C(=O)/C=C/c2ccc(I)cc2)cc1 [TIBC-CANDDY_MLN]?
A: cellular senescence suppressing action: about 80%; shift to SA-β-gal (senescence marker) positive (FACS histogram): hardly observed

— patent US11007269B2, “P53 degradation inducing molecule and pharmaceutical composition” (Tokyo University of Science Foundation, priority 2016, dated 2021)
